Ends that are not written are not given here. * marks the point of attachment. Biotin = O=C1N[C@H]2[C@H](CS[C@H]2CCCCC(=O)*)N1
Test system: HEK293T cells
Experiment: Transfection-independent cytoplasmic entry, T7 RNAP RT-PCR assay
Format: cell-based
Details: 40 pmol biotin:streptavidin dsDNA-SA-peptide assembly added without transfection reagent to HEK293T cells transiently transfected with T7_pEF/myc/cyto; lysed 18 hours later; FIG. 14 bottom panel
Protocol: To determine if cytoplasmic T7 would be active as a polymerase in mammalian cells, we developed a transient transfection assay in HEK293T cells (FIG. 5). Cells were seeded in 24-well dishes at 350,000 cells/well and then incubated overnight in Eagle's Minimum Essential Medium supplemented with 10% fetal bovine serum (FBS). A DNA template containing the T7 promoter upstream of the coding region of a VH antibody domain was prepared by PCR as follows. VH DNA from a naïve human VH library was PCR amplified (Strategene 600312) with a 5′ oligo coding for in vitro transcription and translation signal T7TMV (5′-TAATACG […]-3′; SEQ ID NO: 3)) and a 3′ oligo annealing to the C-terminal VH DNA Cmu and SA linker region, Y15 (5′-[…]-3′; SEQ ID NO: 4). The PCR product was gel purified. […] This specific RNA is then detected and amplified by RT-PCR. […]
For the cytoplasmic entry selections to be successful, biotin-streptavidin assemblies of oligonucleotide and encoded peptide or protein must be competent as T7 polymerase templates. To test whether a complex of biotinylated peptide or VH binder assembled with streptavidin can be transfected into cells, transcribed by T7 RNAP, and detected by RT-PCR, the above VH DNA was modified to carry both SP6 and T7 promoter sequences at the 5′ end (5′-[…]-3′; SEQ ID NO: 9) and Cmu-flag-SA-polyA sequence at the 3′ end (FIG. 12). […]

Biotin-KKWKMRRNQFWVKVQRG [ANT]
cellular uptake / RT-PCR activity as a result of cytoplasmic T7 polymerase activity: cellular uptake of the peptide assemblies occurs

Biotin-YGRKKRRQRRR [TAT]
cellular uptake / RT-PCR activity as a result of cytoplasmic T7 polymerase activity: cellular uptake of the peptide assemblies occurs

From patent publication US20120004137A1, “IDENTIFICATION OF NUCLEIC ACID DELIVERY VEHICLES USING DNA DISPLAY” (X-Body, Inc., priority 2009, published 2012)
